What was measured:
[1] = molecular target: Protein mono-ADP-ribosyltransferase PARP10 (Homo sapiens, UniProt Q53GL7, L926G); test: Inhibition of PARP-10 L926G mutant (unknown origin) mediated ADP-ribosylation of SRPK2 by fluorescence analysis using 3 uM SRPK2 as a substrate
[2] = molecular target: Poly [ADP-ribose] polymerase 1 (Homo sapiens, UniProt P09874); test: Inhibition of PARP1 (unknown origin) by fluorescence analysis
[3] = molecular target: T1, Protein mono-ADP-ribosyltransferase PARP10 (Homo sapiens, UniProt Q53GL7); test: Inhibition of PARP-10 (unknown origin) mediated ADP-ribosylation of SRPK2 by fluorescence analysis using 3 uM SRPK2 as a substrate
T1 sequence (Q53GL7 whole entry): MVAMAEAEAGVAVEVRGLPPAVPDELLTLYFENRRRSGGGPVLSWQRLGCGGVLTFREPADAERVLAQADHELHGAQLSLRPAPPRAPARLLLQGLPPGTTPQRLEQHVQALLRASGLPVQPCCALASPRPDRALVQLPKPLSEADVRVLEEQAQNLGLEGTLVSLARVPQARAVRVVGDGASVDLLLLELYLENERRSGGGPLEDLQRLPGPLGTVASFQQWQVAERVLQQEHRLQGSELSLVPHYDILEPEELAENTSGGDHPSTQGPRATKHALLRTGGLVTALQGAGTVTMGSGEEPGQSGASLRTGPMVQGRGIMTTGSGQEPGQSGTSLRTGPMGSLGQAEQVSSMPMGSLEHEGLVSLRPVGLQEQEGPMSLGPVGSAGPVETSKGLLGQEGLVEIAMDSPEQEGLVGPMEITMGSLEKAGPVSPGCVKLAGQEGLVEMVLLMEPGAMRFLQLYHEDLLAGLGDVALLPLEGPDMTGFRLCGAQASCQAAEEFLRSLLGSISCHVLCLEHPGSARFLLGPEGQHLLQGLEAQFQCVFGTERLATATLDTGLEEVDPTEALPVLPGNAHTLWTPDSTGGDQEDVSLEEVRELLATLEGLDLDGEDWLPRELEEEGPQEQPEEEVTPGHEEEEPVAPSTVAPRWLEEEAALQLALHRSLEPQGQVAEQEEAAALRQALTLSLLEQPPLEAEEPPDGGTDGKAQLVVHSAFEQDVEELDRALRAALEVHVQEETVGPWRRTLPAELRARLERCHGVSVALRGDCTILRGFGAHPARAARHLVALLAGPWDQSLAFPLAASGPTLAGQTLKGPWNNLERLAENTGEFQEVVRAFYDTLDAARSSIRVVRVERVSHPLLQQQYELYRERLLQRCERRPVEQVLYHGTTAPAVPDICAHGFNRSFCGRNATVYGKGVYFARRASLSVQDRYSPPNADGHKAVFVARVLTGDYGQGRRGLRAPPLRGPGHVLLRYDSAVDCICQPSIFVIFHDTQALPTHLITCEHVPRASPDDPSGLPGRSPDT

Chain of Poly [ADP-ribose] polymerase 1 (P09874 whole entry): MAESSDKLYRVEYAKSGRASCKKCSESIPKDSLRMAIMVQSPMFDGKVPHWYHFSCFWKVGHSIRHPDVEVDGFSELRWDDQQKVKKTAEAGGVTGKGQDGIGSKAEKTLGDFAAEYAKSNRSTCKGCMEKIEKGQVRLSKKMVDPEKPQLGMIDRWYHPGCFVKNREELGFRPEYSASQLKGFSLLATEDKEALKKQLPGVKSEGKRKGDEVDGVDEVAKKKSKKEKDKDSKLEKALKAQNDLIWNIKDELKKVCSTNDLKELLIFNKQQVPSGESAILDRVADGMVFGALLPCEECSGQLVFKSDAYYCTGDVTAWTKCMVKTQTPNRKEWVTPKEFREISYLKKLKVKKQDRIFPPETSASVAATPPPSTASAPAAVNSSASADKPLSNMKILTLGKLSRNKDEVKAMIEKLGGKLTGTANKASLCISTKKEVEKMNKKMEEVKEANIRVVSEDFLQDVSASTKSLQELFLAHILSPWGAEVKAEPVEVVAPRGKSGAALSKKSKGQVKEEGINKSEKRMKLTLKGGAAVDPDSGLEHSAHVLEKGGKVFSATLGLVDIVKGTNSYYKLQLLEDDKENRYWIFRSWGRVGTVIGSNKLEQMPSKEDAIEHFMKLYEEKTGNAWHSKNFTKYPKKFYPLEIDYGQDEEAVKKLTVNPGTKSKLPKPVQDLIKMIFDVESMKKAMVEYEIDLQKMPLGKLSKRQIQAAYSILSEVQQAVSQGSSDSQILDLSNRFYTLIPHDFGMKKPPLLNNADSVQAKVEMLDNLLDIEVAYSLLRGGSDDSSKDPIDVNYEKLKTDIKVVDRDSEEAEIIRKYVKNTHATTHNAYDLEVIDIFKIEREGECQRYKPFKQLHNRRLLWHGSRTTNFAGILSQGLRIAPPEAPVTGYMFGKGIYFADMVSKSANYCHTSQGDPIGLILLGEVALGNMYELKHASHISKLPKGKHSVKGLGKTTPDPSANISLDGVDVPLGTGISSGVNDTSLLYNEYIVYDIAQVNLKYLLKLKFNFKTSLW
Chain of Protein mono-ADP-ribosyltransferase PARP10 (Homo sapiens, UniProt Q53GL7, L926G) (Q53GL7 whole entry L926G): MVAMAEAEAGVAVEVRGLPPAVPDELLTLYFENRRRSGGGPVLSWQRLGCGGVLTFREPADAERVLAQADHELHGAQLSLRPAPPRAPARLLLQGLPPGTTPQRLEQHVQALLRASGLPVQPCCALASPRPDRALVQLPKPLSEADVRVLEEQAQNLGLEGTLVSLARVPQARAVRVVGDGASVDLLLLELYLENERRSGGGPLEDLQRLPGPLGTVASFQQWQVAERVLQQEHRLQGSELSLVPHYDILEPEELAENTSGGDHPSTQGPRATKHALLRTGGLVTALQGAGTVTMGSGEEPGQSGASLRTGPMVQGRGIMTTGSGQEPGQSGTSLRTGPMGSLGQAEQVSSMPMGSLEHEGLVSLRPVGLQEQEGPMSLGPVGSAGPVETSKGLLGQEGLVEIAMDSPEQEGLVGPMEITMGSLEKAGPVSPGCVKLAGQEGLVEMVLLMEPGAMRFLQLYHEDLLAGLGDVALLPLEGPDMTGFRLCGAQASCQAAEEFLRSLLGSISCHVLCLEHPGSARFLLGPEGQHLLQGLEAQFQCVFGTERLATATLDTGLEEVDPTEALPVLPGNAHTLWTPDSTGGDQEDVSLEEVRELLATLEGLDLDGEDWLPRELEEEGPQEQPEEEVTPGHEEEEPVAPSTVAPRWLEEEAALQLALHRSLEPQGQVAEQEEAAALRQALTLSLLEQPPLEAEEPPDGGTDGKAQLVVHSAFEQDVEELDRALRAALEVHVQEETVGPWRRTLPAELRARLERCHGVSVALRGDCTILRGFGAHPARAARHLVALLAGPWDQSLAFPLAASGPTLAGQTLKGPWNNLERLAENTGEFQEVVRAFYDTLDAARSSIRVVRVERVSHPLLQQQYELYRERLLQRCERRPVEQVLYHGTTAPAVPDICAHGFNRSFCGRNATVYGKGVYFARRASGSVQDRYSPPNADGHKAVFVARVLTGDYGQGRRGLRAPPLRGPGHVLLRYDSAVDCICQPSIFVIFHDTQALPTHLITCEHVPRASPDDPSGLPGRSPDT

O=C1NCCc2ccc(Cl)cc21
IC50 [1]: 16.2 µM | IC50 [2]: 100 µM | IC50 [3]: > 100 µM

O=C1NCCc2ccc(Br)cc21
IC50 [1]: 8.6 µM | IC50 [2]: > 100 µM | IC50 [3]: > 100 µM

Cc1ccc2c(c1)C(=O)NCC2
IC50 [1]: 112 µM | IC50 [2]: > 100 µM | IC50 [3]: > 100 µM

O=C1NCCc2ccc(C(F)(F)F)cc21
IC50 [1]: 65.5 µM | IC50 [2]: > 100 µM | IC50 [3]: > 100 µM

O=C1NCCc2ccc(O)cc21
IC50 [1]: > 30 µM

COc1ccc2c(c1)C(=O)NCC2
IC50 [1]: 172 µM | IC50 [2]: > 100 µM | IC50 [3]: > 100 µM

Reference: ChEMBL document CHEMBL3627698, “Selective inhibition of PARP10 using a chemical genetics strategy” (Bioorg Med Chem Lett, 2015)
